Measurements from the Bradley open melting point set (2014).
Several values for one entry are separate records, joined by “and”; a condition that tells them apart may be missing. Identical values can stand only once.

SMILES | melting point
O=S1(=O)OC(c2cc(Br)c(O)c(Br)c2)(c2cc(Br)c(O)c(Br)c2)c2ccccc21 | 204 °C
CC(=O)O[C@@H]1[C@@H](OC(C)=O)[C@H](C)O[C@H](C#N)[C@@H]1OC(C)=O | 130 °C
CCCCc1c2c(cc3c1-c1ccccc1OC3)CC(C)(C)CC2=O | 87 °C
C/C(=C(/C#N)c1nc2ccccc2s1)c1cc2ccccc2oc1=O | 156 °C
C/C(OC/C(=N/NC(N)=O)c1ccccc1)=C(\C#N)c1ccccc1 | 157 °C
C=C(C)[C@H]1Cc2c(ccc3c2O[C@@H]2COc4cc(OC)c(OC)cc4[C@@H]2C3=O)O1 | 166 °C
COc1cc2c(c(OC)c1OC)-c1ccc(OC)c(=O)cc1[C@@H](NC(C)=O)CC2 | 142 °C
CC(=O)ON(/C=C1\C(=O)C2(C)CCC1C2(C)C)c1ccccc1 (stereo not given) | 163 °C
CC(C)CC1=C/C(=C/c2ccc(-c3ccccc3)o2)C(=O)O1 | 76 °C
CC12CCC(/C(=C/Nc3ccccc3)C1=O)C2(C)C (stereo not given) | 166 °C
CC12CCC(/C(=C\Nc3ccccc3C(=O)O)C1=O)C2(C)C (stereo not given) | 112 °C
CC12CCC(C(O)=C/C1=N\Nc1ccccc1)C2(C)C (stereo not given) | 182 °C
Cc1ccc2c(c1)-c1c(cc3c(c1-c1ccccc1)C(=O)CC(C)(C)C3)CO2 | 199 °C
CCC1=C(/C=N/Nc2ccc([N+](=O)[O-])cc2[N+](=O)[O-])CCCC1 | 194 °C
CCCCCCCCCCCCCCCCCC(=O)O[C@H]1[C@H](O[C@@H]2[C@@H](C)[C@H](O[C@H]3C[C@@](C)(OC)[C@@H](O)[C@H](C)O3)[C@@H](C)C(=O)O[C@H](CC)[C@@](C)(O)[C@H](O)[C@@H](C)C(=O)[C@H](C)C[C@@]2(C)O)O[C@H](C)C[C@@H]1N(C)C | 102 °C
CCOC(=O)Cc1cc(/C(=N/Nc2ccccc2)C(=O)OCC)c([N+](=O)[O-])cc1[N+](=O)[O-] | 155 °C
COC(=O)c1c(N)sc2c1CCCC2 | 128 °C
CCNc1nc(NC(C)(C)C)nc(SC)n1 | 104 °C
C[Si](C)(C)c1c2c(cc3c1-c1ccccc1OC3)CCCC2=O | 159 °C
C[Si]1(C)O[Si](C)(C)O[Si](C)(C)O[Si](C)(C)O[Si](C)(C)O1 | -44 °C
Cc1cc(C(F)(F)F)n2nc(N)c(/N=N/c3c(Br)cc(Br)cc3Br)c2n1 | 99 °C
Cc1cc(C)c(NC(=O)CN(CC(=O)O)CC(=O)O)c(C)c1Br | 194 °C
Cc1ccc(-c2ccc(/C=C3\N=C(c4ccccc4)OC3=O)o2)cc1 | 150 °C
Cc1ccc(O)c(/N=N/c2c(O)cc(S(=O)(=O)O)c3ccccc23)c1 | 300 °C

SMILES | melting point
Cc1ccccc1/N=N/c1ccc(/N=N/c2c(O)ccc3ccccc23)c(C)c1 | 199 °C
Cl/C(Cl)=C/C3C(C(=O)OC(C#N)c2cccc(Oc1ccccc1)c2)C3(C)C (stereo not given) | 68.5 °C
Cl/C(Cl)=C/C3C(C(=O)OCc2cccc(Oc1ccccc1)c2)C3(C)C (stereo not given) | 34 °C
O=Cc1ccc2c(c1[N+](=O)[O-])C(=O)c1c(Cl)c(Cl)c(Cl)c(Cl)c1C2=O | 267 °C
COC1=CC(=O)CC(C)C12Oc1c(Cl)c(OC)cc(OC)c1C2=O (stereo not given) | 219 °C
O=C(O)c1ccc(N2C(=O)C3ON=C(C(=O)c4ccc(Cl)cc4)C3C2=O)cc1 (stereo not given) | 144 °C
Oc1cc(C(F)(F)F)n2nc(-c3ccc(Cl)cc3)cc2n1 | 156 °C
O=C(Nc1ccc([N+](=O)[O-])cc1[N+](=O)[O-])C(C(F)(F)F)C(F)(F)F | 121 °C
CCOC(=O)c1ccc(NC(=O)C(F)(F)C(F)(F)C(F)(F)C(F)(F)C(F)(F)C(F)(F)C(F)(F)C(F)(F)F)cc1 | 136 °C
Fc1ccc(C2(Cn3cncn3)OC2c2ccccc2Cl)cc1 (stereo not given) | 125 °C
Cn1nc(CC#N)c2c(N)ncnc21 | 137 °C
c1ccc2c(c1)CC1(OCCO1)c1ccccc1CC21OCCO1 | 144 °C
O=C(/C(=N/Nc1cccnc1)C(=O)C(F)(F)F)c1cccs1 | 151 °C
CCCCC(=O)N(Cc1ccc(-c2ccccc2-c2nnn[nH]2)cc1)C(C(=O)O)C(C)C (stereo not given) | 116 °C
C#CC1(O)CCC2C3CC=C4C=C(C(C)(C)C(=O)O)CCC4(C)C3CCC21C (stereo not given) | 259 °C
CCCC(O)(CCC)C1(C)CCC(C(=O)O)C(C)(C)O1 (stereo not given) | 112 °C
CC(C)(C)c1ccc(C2CCC3(CC2)Cc2ccc(C(=O)Nc4ccccc4OCCCC(=O)O)cc2C3)cc1 (stereo not given) | 147 °C
O=C(O)CCc1ccccc1 | 49 °C
Cc1ccc(C)c(C(=O)O)c1 | 134 °C
O=C(O)c1cc(Cl)ccc1/N=N/C1SC(=S)NC1=O (stereo not given) | 211 °C
CCOC(=O)c1cc(-c2ccccc2)n(-c2ccc(Cl)cc2Cl)n1 | 124 °C
CC(=O)NC1C(OC(C)=O)OC(COC(C)=O)C(OC(C)=O)C1OC(C)=O (stereo not given) | 140 °C
CC(=O)OCC1OC(OCc2ccccc2)C(OC(C)=O)C(OC(C)=O)C1OC(C)=O (stereo not given) | 98 °C
CCCCOC(=O)[C@@H](C)Oc1ccc(Oc2ccc(C(F)(F)F)cn2)cc1 | 5 °C

SMILES | melting point
CC12CCC(C(=CC=C3C(=O)C4(C)CCC3C4(C)C)C1=O)C2(C)C | 240 °C
CC12CCC(C1(C)C)C(CCCc1ccccc1)(C1(CCCc3ccccc3)C(=O)C3(C)CCC1C3(C)C)C2=O (stereo not given) | 162 °C
CC12CCC3C(CCC4(C)CC5(CCC34C)OCCO5)C1CCC2=O (stereo not given) | 159 °C
CC(NC(=O)COCCN1C(=O)c2ccccc2C1=O)C(=O)NC(CCC(=O)O)C(=O)O (stereo not given) | 194 °C
O=C1OC(=O)C23Cc4ccccc4CC12Cc1cc2c(cc1C3)CC2 (stereo not given) | 250 °C
CCC1OC(=O)C(C)C(OC2CC(C)(OC)C(O)C(C)O2)C(C)C(OC2OC(C)CC(N(C)C)C2O)C(C)(O)CC(C)C(=O)C(C)C(O)C1(C)O (stereo not given) | 135 °C
CCOC(=O)c1cc2c(oc1=O)-c1ccc(OC)cc1CC2 | 142 °C
C=C(C)[C@@H]1CCC2=CC(=O)C[C@@H](C)[C@]2(C)C1 | 36.9 °C
CC1(C)OC(=O)C(=Cc2cccc([N+](=O)[O-])c2)C(=O)O1 | 177 °C
COc1cc(/C=C/C(=O)c2ccccc2O)ccc1O | 129 °C (2×) and 128 °C
CC(C)(C)NCC(O)COc1cccc2c1CC(O)C(O)C2 (stereo not given) | 124 °C
COc1ccc2c(c1)CC1(CCC(O)(c3ccc(C(C)(C)C)cc3)CC1)C2O (stereo not given) | 104 °C
OC[C@H]1O[C@H](O[C@H]2[C@H](O)[C@@H](O)[C@@H](O[C@H]3[C@H](O)[C@@H](O)C(O)O[C@@H]3CO)O[C@@H]2CO)[C@H](O)[C@@H](O)[C@@H]1O (stereo not given in full) | 133 °C
CC(C)(C)c1ccc(C2CCC3(CC2)Cc2ccc(O)cc2C3)cc1 (stereo not given) | 131 °C
CSC(SC)=C1CCCC(=C(SC)SC)C1=C(C#N)C#N | 156 °C
CCSC(SCC)C(OC(C)=O)C(OC(C)=O)C(OC(C)=O)C(COC(C)=O)OC(C)=O (stereo not given) | 112 °C
CCOC(=O)C1=C(C)NC(=S)NC1c1ccccc1 (stereo not given) | 205 °C
CC(O[S+]([O-])C(C)(C)C)C(O)(c1ccccc1)c1ccccc1 (stereo not given) | 136 °C
CC(Cc1oc2c(c3c(c4ccccc42)OC2CC(=O)OC32)c(=O)c1[Si](C)(C)C)O[Si](C)(C)C(C)(C)C (stereo not given) | 190 °C
CC(CC1CC(=O)c2c3c(c4ccccc4c2O1)OC1CC(=O)OC31)O[Si](C)(C)C(C)(C)C (stereo not given) | 132 °C
O=C(O)c1cnn(-c2ccc([N+](=O)[O-])cc2)c1C(F)(F)F | 201 °C
COc1ccc(-c2csc(C(C#N)=Cc3ccc(O)cc3)n2)cc1 | 186 °C
